Experimental data published in ChEMBL document CHEMBL1926505, “Lanostane and hopane triterpenes from the entomopathogenic fungus Hypocrella sp. BCC 14524” (J Nat Prod, 2011).
Converted amounts (≈) assume the structure as drawn. The source made the active and inactive calls. The calls are words filed in the database; no cut-off is given here.

Tests used:
Plasmodium falciparum = experiment: Antimalarial activity against multidrug-resistant Plasmodium falciparum K1 by microculture radioisotope technique; format: functional, organism-based
NCI-H187 = experiment: Cytotoxicity against human NCI-H187 cells by resazurin microplate assay; format: functional, cell-based
[1] = test system: Mycobacterium tuberculosis; experiment: Antimycobacterial activity against Mycobacterium tuberculosis H37Ra by green fluorescent protein microplate assay; format: functional
Vero = experiment: Cytotoxicity against african green monkey Vero cells by green fluorescent protein microplate assay; format: cell-based; details: chlorocebus sabaeus
MCF7 = experiment: Cytotoxicity against human MCF7 cells by resazurin microplate assay; format: functional, cell-based
KB = experiment: Cytotoxicity against human KB cells by resazurin microplate assay; format: functional, cell-based

Row | SMILES | IC50 (Plasmodium falciparum) | MIC [1] | IC50 (Vero) | Activity (Vero) | Activity (NCI-H187) | Activity [1] | Activity (MCF7) | Activity (KB) | Activity (Plasmodium falciparum) | other results
1 | C[C@H]1[C@@H](O)O[C@@H]2O[C@@]3(C)CC[C@H]4[C@H](C)CC[C@@H]1[C@@]24OO3 [ARTENIMOL] | 0.0011 µM |  |  |  |  |  |  |  |  | 
2 | CC(C)(O)[C@H]1CC[C@]2(C)[C@H]3CC[C@@H]4[C@@]5(C)CC[C@H](O)C(C)(C)[C@@H]5C[C@H](O)[C@@]4(C)[C@]3(C)[C@@H](O)C[C@@H]12 | 12 µM | 50 µg/mL (≈ 105 µM) | 47 µM |  |  |  |  |  |  | IC50 (NCI-H187): 12 µM; IC50 (MCF7): > 105 µM; IC50 (KB): 28 µM
3 | CC(C)(O)[C@H]1CC[C@]2(C)[C@H]3CC[C@@H]4[C@@]5(C)CCCC(C)(C)[C@@H]5CC[C@@]4(C)[C@]3(C)[C@@H](O)C[C@@H]12 |  | 12.5 µg/mL (≈ 28.1 µM) |  | Non-toxic |  |  |  |  |  | 
4 | CC(=O)O[C@H]1CC[C@]2(C)[C@H]3CC[C@@H]4[C@@]5(C)CC[C@H](C(C)(C)O)[C@@H]5C[C@H](O)[C@@]4(C)[C@]3(C)[C@@H](O)C[C@H]2C1(C)C | 5.2 µM | 6.25 µg/mL (≈ 12 µM) | 13 µM |  |  |  |  |  |  | IC50 (NCI-H187): 11 µM; IC50 (MCF7): > 96 µM; IC50 (KB): 56 µM
5 | NNC(=O)c1ccncc1 [ISONIAZID] |  | 0.0234 µg/mL (≈ 0.171 µM) |  |  |  |  |  |  |  | 
6 | C=C(C)[C@H]1CC[C@]2(C)[C@H]3CC[C@@H]4[C@@]5(C)CCCC(C)(C)[C@@H]5C[C@H](O)[C@@]4(C)[C@]3(C)[C@@H](O)C[C@@H]12 (relative stereo) |  |  |  | Non-toxic | inactive | inactive | inactive | inactive | inactive | 
7 | CC(C)(O)[C@H]1CC[C@]2(C)[C@H]3CC[C@@H]4[C@@]5(C)CC[C@H](O)C(C)(C)[C@@H]5CC[C@@]4(C)[C@]3(C)[C@@H](O)C[C@@H]12 |  | > 50 µg/mL |  | Non-toxic |  |  |  |  |  | 
8 | CC(=O)O[C@H]1CC[C@]2(C)[C@H]3CC[C@@H]4[C@@]5(C)CC[C@H](C(C)(C)O)[C@@H]5C[C@H](O)[C@@]4(C)[C@]3(C)CC[C@H]2C1(C)C |  | 12.5 µg/mL (≈ 24.9 µM) |  | Non-toxic |  |  |  |  |  | 
9 | CC(C)(O)[C@H]1CC[C@H]([C@H]2CC[C@@]3(C)C4=CC[C@H]5C(C)(C)[C@@H](O)CC[C@]5(C)C4=CC[C@]23C)CO1 [HYPOCRELLOL A] |  |  |  | Non-toxic | inactive | inactive | inactive | inactive | inactive | 
10 | CC(=O)O[C@H]1CC[C@]2(C)C3=C(CC[C@H]2C1(C)C)[C@]1(C)CC[C@H]([C@H]2CC[C@H](C(C)(C)O)OC2)[C@@]1(C)C[C@H]3O [HYPOCRELLOL D] | 8 µM | 50 µg/mL (≈ 96.8 µM) | 30 µM |  |  |  |  |  |  | IC50 (NCI-H187): 18 µM; IC50 (MCF7): 38 µM; IC50 (KB): 15 µM
11 | Cc1c2ccncc2c(C)c2c1[nH]c1ccccc12 [ELLIPTECINE] |  |  | 9.8 µM |  |  |  |  |  |  | 
12 | CC(=O)O[C@H]1CC[C@]2(C)C3=CC[C@]4(C)[C@@H]([C@H]5CC[C@H](C(C)(C)O)OC5)CC[C@@]4(C)C3=CC[C@H]2C1(C)C [HYPOCRELLOL B] |  |  |  | Non-toxic | inactive | inactive | inactive | inactive | inactive | 
13 | C=C(C)[C@H]1CC[C@]2(C)[C@H]3CC[C@@H]4[C@@]5(C)CC[C@H](OC(C)=O)C(C)(C)[C@@H]5CC[C@@]4(C)[C@]3(C)[C@@H](O)C[C@@H]12 |  |  |  | Non-toxic | inactive | inactive | inactive | inactive | inactive | 
